According to US20090163461A1, “Ligand for Vesicular Acetylcholine Transporter” (priority 2005, published 2009):
Read-outs that look alike come from different tables or passages of the source.

How the values were obtained:
VAChT [1] = target: T1, VAChT (Rattus norvegicus, UniProt Q62666); assay: biochemical
T1 sequence (Q62666 1-530): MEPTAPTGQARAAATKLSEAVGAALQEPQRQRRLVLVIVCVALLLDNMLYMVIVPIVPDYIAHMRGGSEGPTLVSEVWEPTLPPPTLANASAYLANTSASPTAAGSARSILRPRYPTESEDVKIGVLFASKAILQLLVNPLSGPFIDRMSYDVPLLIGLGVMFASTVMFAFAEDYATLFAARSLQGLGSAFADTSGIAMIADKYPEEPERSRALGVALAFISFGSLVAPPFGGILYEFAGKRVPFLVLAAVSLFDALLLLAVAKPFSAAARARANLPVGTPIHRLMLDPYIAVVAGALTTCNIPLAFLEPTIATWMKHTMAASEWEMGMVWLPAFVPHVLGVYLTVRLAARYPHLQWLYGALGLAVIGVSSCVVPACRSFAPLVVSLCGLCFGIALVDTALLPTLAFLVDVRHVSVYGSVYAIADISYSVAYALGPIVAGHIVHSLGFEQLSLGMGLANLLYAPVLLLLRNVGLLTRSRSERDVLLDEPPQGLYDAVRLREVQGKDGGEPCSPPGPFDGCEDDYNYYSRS
Description: (§1) The affinity of (−)-o-MeVES for VAChT and sigma receptors (σ-1, σ-2) was examined by in vitro drug inhibition experiments.
(§2) First, the brain and liver were extirpated from a rat, a 0.32 M sucrose solution in an amount by weight 10 times the weight of each tissue was added, and each tissue was ground using a Teflon homogenizer. Next, the ground tissue solution was centrifuged at 1000 g for 10 minutes, and the precipitated fraction was removed. Furthermore, the supernatant was centrifuged at 55000 g for 60 minutes, and the precipitated tissue was added to, and suspended in, 50 mM Tris-HCl buffer solution/0.32 M sucrose solution (pH 7.8).
For each test compound, samples at 10 different concentrations (concentrations set at 10 levels in the range of 10^−5 M to 10^−10 M) were prepared.
For each sample, the RI (100 μl), sample (50 μl), 50 mM Tris-HCl buffer solution (pH 7.8) (100 μl), 2 μM DTG solution (50 μl) (200 nM as the final concentration), and, finally, the prepared rat cerebral membrane (500-900 μg (protein weight)/200 μl) was added to a test tube, and they were reacted at 37° C. for 60 minutes. The test tube was cooled with ice to stop the reaction, and the rat cerebral membrane was immediately adsorbed to a glass filter using a cell harvester. After the glass filter was washed with 50 mM Tris-HCl buffer solution (pH 7.8) (5 ml) three times, the rat cerebral membrane, together with the glass filter, was placed in a liquid scintillation vial, and a liquid scintillator was added, after which radioactivity was measured using a liquid scintillation counter.
(§3) Ki=IC50/(1+C/Kd)(nM) formula

σ-1 receptor = σ-1 receptor (Rattus norvegicus, UniProt Q9R0C9); assay: biochemical
Description: as §1, §2, §3

σ-2 receptor = target: T2, σ-2 receptor (Rattus norvegicus, UniProt Q5U3Y7); assay: biochemical; format: binding
T2 construct: except that rat liver membranes (300-600 μg (protein weight)/200 μl) were used; from tissue; host or cells: rat liver membranes
T2 sequence (Q5U3Y7 1-176): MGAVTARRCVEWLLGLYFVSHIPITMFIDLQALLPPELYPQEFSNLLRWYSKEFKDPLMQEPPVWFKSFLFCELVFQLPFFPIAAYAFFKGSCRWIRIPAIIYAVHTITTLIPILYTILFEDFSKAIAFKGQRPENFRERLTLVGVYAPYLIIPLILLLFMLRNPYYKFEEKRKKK
Description: as §1, §2
3 nM [^3H]DTG ([^3H]-1,3-di-o-tolylguanidine) was used as the radioisotope (RI) for the σ-2 receptor. […] A test was performed in the same procedures as those for the test of affinity for the […] except that rat liver membranes (300-600 μg (protein weight)/200 μl) were used.
as §3

VAChT in the brain = target: T3, VAChT in the brain (Rattus norvegicus, UniProt Q62666); assay: Inhibitory effects of non-radioactive ligands on cerebral distribution of (−)-[^11C]-o-methylvesamicol in rats; format: in vivo; conditions: 30 minutes; for local accumulation of (−)-[^11C]-o-MeVES in the brain, effect of co-administered non-radioactive ligand: 500 nmol per kg i.v.; for Radioactivity level (% ID/g) Blood / Radioactivity level (% ID/g) Brain (other than above) / Radioactivity level (% ID/g) Cerebellum / Radioactivity level (% ID/g) Cerebral cortex / Radioactivity level (% ID/g) Hippocampus / Radioactivity level (% ID/g) Medulla oblongata / Radioactivity level (% ID/g) Striate body / Radioactivity level (% ID/g) Brain (whole): tracer (−)-[^11C]-o-MeVES 20 MBq i.v. together with ligand 500 nmol per kg, mean ± S.D. n = 4-6
T3 construct: from tissue; host or cells: brain of living rats, tissue counted or sectioned after killing
T3 sequence (Q62666 1-530): T1 sequence (Q62666 1-530)
Description: To the caudal vein of each rat, an injection (0.1 ml) containing 20 MBq of (−)-[^11C]-o-MeVES and 0.1 ml (equivalent to 500 nmol per kg body weight) of a DMSO solution containing each of the above-described non-radioactive ligands were administered together. Thirty minutes after the administration, the rats were killed by cervical dislocation, and blood was drawn from the heart using a syringe, after which the brain was extirpated from each rat. The extirpated brain was divided into the cerebral cortex, hippocampus, striate body, cerebellum, medulla oblongata, and other parts, and the radioactivity in each tissue was measured using a gamma counter. Each tissue was also weighed.
For control, an injection (0.1 ml) containing 20 MBq of (−)-[^11C]-o-MeVES and a ligand-free DMSO solution (0.1 ml) were administered to the caudal vein of each rat, and measurements were taken in the same manner as described above.

δ-1 receptor = target: T4, δ-1 receptor (Rattus norvegicus, UniProt Q9R0C9); conditions: in vitro, rat brain; mean±standard deviation; Life Sciences 71 (2002) 1591-1598; read-out: Ki value, affinity for δ-1 receptor; cited from earlier work
T4 construct: as a result of in vitro experiments using the rat brain; host or cells: rat brain

δ-2 receptor = target: T5, δ-2 receptor (Rattus norvegicus, UniProt Q5U3Y7); conditions: in vitro, rat brain; mean±standard deviation; Life Sciences 71 (2002) 1591-1598; read-out: Ki value, affinity for δ-2 receptor; cited from earlier work
T5 construct: as a result of in vitro experiments using the rat brain
T5 sequence (Q5U3Y7 1-176): T2 sequence (Q5U3Y7 1-176)

VAChT [2] = target: T1, VAChT; parameters: the brain and liver were extirpated from a rat; from tissue; host or cells: rat brain (cerebral membranes); conditions: in vitro, rat brain; mean±standard deviation; Life Sciences 71 (2002) 1591-1598; read-out: Ki value, affinity for VAChT; cited from earlier work
[3] = compared with (−)-o-iodovesamicol

Sequence of σ-1 receptor (Q9R0C9 whole entry): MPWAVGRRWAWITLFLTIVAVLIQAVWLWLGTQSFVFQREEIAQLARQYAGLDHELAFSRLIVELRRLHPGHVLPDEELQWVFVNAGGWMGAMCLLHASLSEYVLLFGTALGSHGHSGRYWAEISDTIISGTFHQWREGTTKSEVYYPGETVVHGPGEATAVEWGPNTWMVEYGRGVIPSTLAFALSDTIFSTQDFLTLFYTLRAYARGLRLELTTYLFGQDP
T4 sequence (Q9R0C9 whole entry): as above

With `Cc1ccccc1C1CCN(C2CCCCC2O)CC1` (single isomer, unassigned; (-)) [(−)-o-MeVES, (−)-2-(4-(2-methylphenyl)piperidino)cyclohexanol] as the compound, how does the IC50 (VAChT [1]) read?
The IC50 was 16 nM.

And the Ki (VAChT [1])?
Its Ki is 6.7 ± 0.4 nM.

And the “6-1 receptor/VAChT ratio of the Ki values” (VAChT [1]; [3])?
The value was “higher”.

What about the “6-2 receptor/VAChT ratio of the Ki values” (VAChT [1]; [3]) of the same compound?
Its value is “higher”.

And the IC50 (σ-1 receptor)?
Its IC50 is 38 nM.

And the Ki (σ-1 receptor)?
The Ki was 33.7 ± 5.9 nM.

What about the IC50 (σ-2 receptor) of the same compound?
Its IC50 is 320 nM.

What about the Ki (σ-2 receptor) of the same compound?
Its Ki is 266 ± 28 nM.

What about the “local accumulation of (−)-[^11C]-o-MeVES in the brain, effect of co-administered non-radioactive ligand” value (VAChT in the brain) of the same compound?
Its value is “inhibited”.

And the “Radioactivity level (% ID/g) Blood” value (VAChT in the brain)?
Its value is 0.14 ± 0.02 % ID/g.

What about the “Radioactivity level (% ID/g) Brain (other than above)” value (VAChT in the brain) of the same compound?
The value was 0.63 ± 0.10 % ID/g.

And the “Radioactivity level (% ID/g) Cerebellum” value (VAChT in the brain)?
The value was 0.60 ± 0.07 % ID/g.

And the “Radioactivity level (% ID/g) Cerebral cortex” value (VAChT in the brain)?
The value was 0.70 ± 0.10 % ID/g.

What about the “Radioactivity level (% ID/g) Hippocampus” value (VAChT in the brain) of the same compound?
The value was 0.71 ± 0.08 % ID/g.

What about the “Radioactivity level (% ID/g) Medulla oblongata” value (VAChT in the brain) of the same compound?
Its value is 0.74 ± 0.09 % ID/g.

What about the “Radioactivity level (% ID/g) Striate body” value (VAChT in the brain) of the same compound?
The value was 0.71 ± 0.10 % ID/g.

What about the “Radioactivity level (% ID/g) Brain (whole)” value (VAChT in the brain) of the same compound?
The value was 0.68 ± 0.10 % ID/g.

What about the melting point of the same compound?
The melting point was 116 to 118 °C.

For `OC1CCCCC1N1CCC(c2ccccc2)CC1` (single isomer, unassigned; (-)) [(−)-Vesamicol, 2-(4-Phenylpiperidino)-cyclohexanol], which IC50 (VAChT [1]) is on record?
The IC50 was 13 nM.

What about the Ki (VAChT [1]) of the same compound?
The Ki was 4.4 ± 0.6 nM.

What about the IC50 (σ-2 receptor) of the same compound?
Its IC50 is 420 nM.

And the Ki (σ-2 receptor)?
The Ki was 346 ± 37 nM.

What about the “local accumulation of (−)-[^11C]-o-MeVES in the brain, effect of co-administered non-radioactive ligand” value (VAChT in the brain) of the same compound?
The value was “inhibited”.

And the “Radioactivity level (% ID/g) Blood” value (VAChT in the brain)?
The value was 0.13 ± 0.01 % ID/g.

What about the “Radioactivity level (% ID/g) Brain (other than above)” value (VAChT in the brain) of the same compound?
The value was 0.69 ± 0.04 % ID/g.

What about the “Radioactivity level (% ID/g) Cerebellum” value (VAChT in the brain) of the same compound?
The value was 0.62 ± 0.03 % ID/g.

And the “Radioactivity level (% ID/g) Cerebral cortex” value (VAChT in the brain)?
The value was 0.71 ± 0.04 % ID/g.

And the “Radioactivity level (% ID/g) Hippocampus” value (VAChT in the brain)?
Its value is 0.66 ± 0.05 % ID/g.

What about the “Radioactivity level (% ID/g) Medulla oblongata” value (VAChT in the brain) of the same compound?
The value was 0.80 ± 0.08 % ID/g.

And the “Radioactivity level (% ID/g) Striate body” value (VAChT in the brain)?
Its value is 0.72 ± 0.03 % ID/g.

And the “Radioactivity level (% ID/g) Brain (whole)” value (VAChT in the brain)?
Its value is 0.70 ± 0.04 % ID/g.

What does the source list for `COc1ccc(CCN2CCN(CCCc3ccccc3)CC2)cc1OC` [SA4503, 1-(3,4-dimethoxyphenethyl)-4-(3-phenyl-propyl)piperazine]?
IC50 (VAChT [1]): 120 nM; Ki (VAChT [1]): 50.2 ± 7.2 nM; IC50 (σ-2 receptor): 280 nM; Ki (σ-2 receptor): 242 ± 17 nM; local accumulation of (−)-[^11C]-o-MeVES in the brain, effect of co-administered non-radioactive ligand (VAChT in the brain): inhibited; Radioactivity level (% ID/g) Blood (VAChT in the brain): 0.14 ± 0.02 % ID/g; Radioactivity level (% ID/g) Brain (other than above) (VAChT in the brain): 0.55 ± 0.05 % ID/g; Radioactivity level (% ID/g) Cerebellum (VAChT in the brain): 0.52 ± 0.07 % ID/g; Radioactivity level (% ID/g) Cerebral cortex (VAChT in the brain): 0.62 ± 0.08 % ID/g; Radioactivity level (% ID/g) Hippocampus (VAChT in the brain): 0.84 ± 0.18 % ID/g; Radioactivity level (% ID/g) Medulla oblongata (VAChT in the brain): 0.66 ± 0.08 % ID/g; Radioactivity level (% ID/g) Striate body (VAChT in the brain): 0.61 ± 0.07 % ID/g; Radioactivity level (% ID/g) Brain (whole) (VAChT in the brain): 0.59 ± 0.07 % ID/g

For `CC(C)=CCN1CCC2(C)c3cc(O)ccc3CC1C2C` (single isomer, unassigned; (+)) [(+)-Pentazocine, (+)-pentazocine], which IC50 (VAChT [1]) is on record?
Its IC50 is 830 nM.

And the Ki (VAChT [1])?
The Ki was 315 ± 121 nM.

And the “local accumulation of (−)-[^11C]-o-MeVES in the brain, effect of co-administered non-radioactive ligand” value (VAChT in the brain)?
Its value is “not inhibited”.

And the “Radioactivity level (% ID/g) Blood” value (VAChT in the brain)?
The value was 0.12 ± 0.01 % ID/g.

What about the “Radioactivity level (% ID/g) Brain (other than above)” value (VAChT in the brain) of the same compound?
Its value is 2.52 ± 0.43 % ID/g.

And the “Radioactivity level (% ID/g) Cerebellum” value (VAChT in the brain)?
Its value is 2.07 ± 0.31 % ID/g.

And the “Radioactivity level (% ID/g) Cerebral cortex” value (VAChT in the brain)?
The value was 2.72 ± 0.40 % ID/g.

And the “Radioactivity level (% ID/g) Hippocampus” value (VAChT in the brain)?
Its value is 2.59 ± 0.44 % ID/g.

What about the “Radioactivity level (% ID/g) Medulla oblongata” value (VAChT in the brain) of the same compound?
Its value is 2.83 ± 0.45 % ID/g.

What about the “Radioactivity level (% ID/g) Striate body” value (VAChT in the brain) of the same compound?
The value was 2.39 ± 0.40 % ID/g.

What about the “Radioactivity level (% ID/g) Brain (whole)” value (VAChT in the brain) of the same compound?
The value was 2.52 ± 0.40 % ID/g.

Which results are given for `OC1CCCCC1N1CCC(c2ccccc2I)CC1` (single isomer, unassigned; (-)) [(−)-o-iodovesamicol]?
Ki (δ-1 receptor): 62.2 ± 12 nM; Ki (δ-2 receptor): 554 ± 137 nM; Ki (VAChT [2]): 15 ± 2.9 nM
